Reference: patent US7531344B2, “Induction and stabilization of enzymatic activity in microorganisms” (Georgia State University Research Foundation, Inc., priority 2006, dated 2009)

What was measured:
asparaginase I [1] = assay: Effect of media composition and inducer on asparaginase I, Example 10; assay type: cell-based, Rhodococcus sp. DAP 96253; details: for Asparaginase I levels / ability to induce asparaginase I activity: inducer 1000 ppm; for effect of medium additive on asparaginase I activity: maltose added to YEMEA, Cobalt 5-50 ppm with glucose or maltose
Source text: (§1) In certain embodiments, activity can be referred to in terms of “units” per mass of enzyme or cells (typically based on the dry weight of the cells, e.g., units/mg cdw). A “unit” generally refers to the ability to convert a specific content of a compound to a different compound under a defined set of conditions as a function of time. In specific embodiments, 1 “unit” of nitrile hydratase activity can relate to the ability to convert 1 μmol of acrylonitrile to its corresponding amide per minute, per milligram of cells (dry weight) at a of pH 7.0 and a temperature of 30° C. Similarly, 1 unit of amidase activity can relate to the ability to convert 1 μmol of acrylamide to its corresponding acid per minute, per milligram of cells (dry weight) at a pH of 7.0 and a temperature of 30° C. Further, 1 unit of asparaginase I activity can relate to the ability to convert 1 μmol of asparagine to its corresponding acid per minute, per milligram of cells (dry weight) at a pH of 7.0 and a temperature of 30° C.
Testing was performed to evaluate the effect on asparaginase I activity based upon the inducer used. In particular, testing was performed using asparagine, glutamine, succinonitrile, and isovaleronitrile as inducers (all added at 1000 ppm each).

asparaginase I [2] = assay: Asparaginase I production, Example 8; assay type: cell-based; details: asparagine and glutamine 3.8 mM
Source text: as §1
The induction of asparaginase I production in various nitrile hydratase producing microorganisms was evaluated. All strains were grown on YEMEA medium containing 7.5 g/L of urea and 10 ppm cobalt (provided as cobalt chloride) supplemented with asparagine (ASN), glutamine (GLN), or both asparagine and glutamine. The asparagine and glutamine were added 3.8 mM. As a comparative, enzyme production was also evaluated with supplementation was with acrylonitrile (AN), acrylamide (AMD) or acrylonitrile and acrylamide. Growth temperature was in the range of 26° C. to 30° C.

amidase [3] = assay: Amidase induction by inducers, Example 1; assay type: cell-based, Rhodococcus sp., strain DAP 96253; details: for amidase activity greater than the amidase activity resulting from the use of acrylonitrile: relative to acrylonitrile induction, Table 1
Source text: as §1
(§2) The induction of nitrile hydratase activity and amidase activity in Rhodococcus sp., strain DAP 96253, was evaluated using multiple types of inducers (1000 ppm). Three different samples were cultured in YEMEA medium containing 10 ppm cobalt and 7.5 g/L urea and supplemented with acrylonitrile, asparagine, or glutamine. The specific nitrile hydratase activity and the specific amidase activity in each sample was evaluated, and the results are provided below in Table 1, with activities provided in units/mg cdw (cell dry weight). One unit of nitrile hydratase activity relates to the ability to convert 1 μmol of acrylonitrile to its corresponding amide per minute, per milligram of cells (dry weight) at a of pH 7.0 and a temperature of 30° C. One unit of amidase activity relates to the ability to convert 1 μmol of acrylamide to its corresponding acid per minute, per milligram of cells (dry weight) pH of 7.0 and a temperature of 30° C.

nitrile hydratase [4] = assay: Nitrile hydratase induction by inducers, Example 1; assay type: cell-based, Rhodococcus sp., strain DAP 96253; details: for nitrile hydratase induction compared with acrylonitrile: Table 1 comparison
Source text: as §1, §2

amidase [5] = assay: 20 liter fermentation with asparagine feed: amidase; assay type: cell-based, Rhodococcus sp. DAP 96253; details: asparagine 0.15M at 1000 μl/min from t=10 h
Description: (§3) Rhodococcus sp. DAP 96253 were grown using biphasic medium as the source of inoculum for a 20 liter fermentation. The supplemental addition of medium/carbohydrate (either YEMEA, dextrose or maltose) was made to the modified R2A medium, containing cottonseed hydrolysate substituted for the Proteos Peptone 3 (PP3). Asparagine (0.15M solution) was added at a continuous rate of 1000 μl/min beginning at t=10 h. At the end of the fermentation run, 159 units per milligram cell dry weight of acrylonitrile specific nitrile hydratase, 22 units of amidase per milligram cell dry weight, and 16 g/l cell packed wet weight were produced.

asparaginase I [6] = assay: 20 liter fermentation with asparagine feed: asparaginase I; assay type: cell-based, Rhodococcus sp. DAP 96253; details: asparagine 0.15M at 1000 μl/min from t=10 h
Description: as §3

[7] = system: acrylonitrile specific nitrile hydratase; assay: 20 liter fermentation with asparagine feed: nitrile hydratase; assay type: cell-based, Rhodococcus sp. DAP 96253; details: asparagine 0.15M at 1000 μl/min from t=10 h
Description: as §3

amidase [8] = assay: Amidase production, Example 7; assay type: cell-based; details: Pseudomonas chloroaphis ATCC 43051; 30 °C; supplement 3.8 mM
Description: (§4) In certain embodiments, activity can be referred to in terms of “units” per mass of enzyme or cells (typically based on the dry weight of the cells, e.g., units/mg cdw). A “unit” generally refers to the ability to convert a specific content of a compound to a different compound under a defined set of conditions as a function of time. […] The induction of nitrile hydratase production and amidase production in various nitrile hydratase producing microorganisms was evaluated. […] The asparagine and glutamine were added 3.8 mM. As a comparative, enzyme production with no supplementation was also tested. Growth temperature was in the range of 26° C. to 30° C.

nitrile hydratase [9] = assay: Nitrile hydratase production, Example 7; assay type: cell-based; details: Pseudomonas chloroaphis ATCC 43051; 30 °C; supplement 3.8 mM
Description: as §4

[10] = YEMEA - Glucose, Without Cobalt
[11] = YEMEA - Maltose, Without Cobalt
[12] = Rhodococcus sp. DAP 96253, YEMEA, 10 ppm cobalt, 7.5 g/L urea, inducer 1000 ppm

With `CC(C)CC#N` [Isovaleronitrile, isovaleronitrile, reference compound] the “Asparaginase I levels” value (asparaginase I [1]; YEMEA - Glucose, With Cobalt) was 2.9 units/mg cell dry weight, the “Asparaginase I levels” value (asparaginase I [1]; [10]) was 3.5 units/mg cell dry weight and the “Asparaginase I levels” value (asparaginase I [1]; YEMEA - Maltose, With Cobalt) was 7.0 units/mg cell dry weight. The “Asparaginase I levels” value (asparaginase I [1]; [11]) was 6.8 units/mg cell dry weight.

In the case of `C=CC#N` [Acrylonitrile, acrylonitrile], the “Asparaginase I Level Based on Growth Medium Supplementation” value (“Asparaginase I Level Based” for short) (asparaginase I [2]; Brevibacterium ketoglutaricum ATCC 21533, 30 °C) was 14.6 Units/mg cdw, the “Asparaginase I Level Based” value (asparaginase I [2]; Pseudomonas chloroaphis ATCC 13985, 26 °C) was 2 Units/mg cdw and the “Asparaginase I Level Based” value (asparaginase I [2]; Rhodococcus rhodochrous DAP 96622 (ATCC 55898), 26 °C) was 8.2 Units/mg cdw. For the same molecule, the “Asparaginase I Level Based” value (asparaginase I [2]; Rhodococcus sp. DAP 96253 (ATCC 55899), 30 °C) was 7.8 Units/mg cdw, the “Amidase Activity” value (amidase [3]; [12]) was 7.59 Units/mg cdw and the “Nitrile Hydratase Activity” value (nitrile hydratase [4]; [12]) was 162.23 Units/mg cdw.

In the case of `OC[C@H]1O[C@H](O[C@H]2[C@H](O)[C@@H](O)C(O)O[C@@H]2CO)[C@H](O)[C@@H](O)[C@@H]1O` (mixture of isomers) [maltose], the “effect of medium additive on asparaginase I activity” value (asparaginase I [1]) was “Higher asparaginase I activity”.

For `N#CCCC#N` [Succinonitrile, succinonitrile, reference compound], the “Asparaginase I levels” value (asparaginase I [1]; YEMEA - Glucose, With Cobalt) was 8.5 units/mg cell dry weight, the “Asparaginase I levels” value (asparaginase I [1]; [10]) was 6.5 units/mg cell dry weight and the “Asparaginase I levels” value (asparaginase I [1]; YEMEA - Maltose, With Cobalt) was 10.0 units/mg cell dry weight. For the same molecule, the “Asparaginase I levels” value (asparaginase I [1]; [11]) was 11.0 units/mg cell dry weight and the “ability to induce asparaginase I activity” value (asparaginase I [1]) was “showed an ability to induce asparaginase I activity”.

With `NC(=O)C[C@H](N)C(=O)O` [Asparagine, asparagine] the “amidase produced at end of fermentation” value (amidase [5]) was 22 units per milligram cell dry weight, the “asparaginase I produced at end of fermentation” value (asparaginase I [6]) was 16 units per milligram cell dry weight and the “Asparaginase I levels” value (asparaginase I [1]; YEMEA - Glucose, With Cobalt) was 6.5 units/mg cell dry weight. The “Asparaginase I levels” value (asparaginase I [1]; [10]) was 5.3 units/mg cell dry weight, the “Asparaginase I levels” value (asparaginase I [1]; [11]) was 8.7 units/mg cell dry weight and the “amidase activity greater than the amidase activity resulting from the use of acrylonitrile” value (amidase [3]) was “approximately 74%”. The “nitrile hydratase induction compared with acrylonitrile” value (nitrile hydratase [4]) was “exceeds the ability of acrylonitrile to induce such activity” and the “acrylonitrile specific nitrile hydratase produced at end of fermentation” value [7] was 159 units per milligram cell dry weight.

With `NC(=O)CC[C@H](N)C(=O)O` [Glutamine, glutamine] the “Asparaginase I Level Based” value (asparaginase I [2]; Pseudomonas chloroaphis ATCC 43051, 30 °C) was “No”, the “Asparaginase I levels” value (asparaginase I [1]; YEMEA - Glucose, With Cobalt) was 1.9 units/mg cell dry weight and the “Asparaginase I levels” value (asparaginase I [1]; [10]) was 1.5 units/mg cell dry weight. The “Asparaginase I levels” value (asparaginase I [1]; YEMEA - Maltose, With Cobalt) was 8.1 units/mg cell dry weight, the “Asparaginase I levels” value (asparaginase I [1]; [11]) was 9.3 units/mg cell dry weight and the “ability to induce asparaginase I activity” value (asparaginase I [1]) was “showed an ability to induce asparaginase I activity”. The “amidase activity greater than the amidase activity resulting from the use of acrylonitrile” value (amidase [3]) was “approximately 37%”, the “nitrile hydratase induction compared with acrylonitrile” value (nitrile hydratase [4]) was “exceeds the ability of acrylonitrile to induce such activity” and the “Amidase Level Based on Growth Medium Supplementation” value (amidase [8]) was “No”. For the same molecule, the “Nitrile Hydratase Level Based on Growth Medium Supplementation” value (nitrile hydratase [9]) was “No”.

In the case of `[Co]` [Cobalt], the “effect of medium additive on asparaginase I activity” value (asparaginase I [1]) was “resulted in improvements”.
